Results from patent publication US20240317791A1 (priority 2021, published 2024).
≈ marks a conversion by molar mass, not a printed value. Where two headings read alike, the source gives them in different places.

Legend:
[1] = test system: Paecilomyces variotii; conditions: 2 strains Paecilomyces variotii; cited from earlier work
[2] = test system: Aspergillus spp.; conditions: 13 strains of Aspergillus spp.; cited from earlier work
[3] = test system: rat erythrocytes; conditions: cited from earlier work
[4] = rats, cited from earlier work
[5] = test system: Candida albicans; conditions: cited from earlier work
[6] = test system: Candida auris; assay: MIC determination against clinical isolates of Candida auris (CLSI M27, 4th edition); assay type: cell-based; conditions: Candidozyma auris, read-out: MIC values
Excerpt: (§1) MIC: Minimum Inhibitory Concentration (MIC) is defined as the lowest concentration of an antimicrobial ingredient that is bacteriostatic.
(§2) Testing has been performed in triplicates for each isolate.

[7] = test system: Rhizopus oryzae; assay: MIC determination against clinical isolates of the order Mucorales (CLSI M27, 4th edition); assay type: cell-based; conditions: Rhizopus arrhizus, strain 2086, clinical strain
Excerpt: as §1, §2

[8] = test system: Rhizopus microsporus; assay: as above; assay type: cell-based
Excerpt: as §1, §2

[9] = test system: Mucor circinelloides; assay: MIC determination against ATCC and clinical isolates of the order Mucorales (CLSI M27, 4th edition); assay type: cell-based
Excerpt: as §1, §2

[10] = test system: Sporothrix schenkii; conditions: 1 strain of Sporothrix schenkii; cited from earlier work
[11] = test system: Penicillium spp.; conditions: 5 strains of Penicillium spp.; cited from earlier work
[12] = test system: Candida sp.; conditions: cited from earlier work
[13] = test system: Mucor sp.; conditions: 4 strains of Mucor sp.; cited from earlier work
[14] = single intravenous administration, amcipatricin diascorbate 1.25 mg/kg, amphotericin B 1 mg/kg

CNc1ccc(C(=O)CC(O)CC[C@H](C)C2OC(=O)C[C@H](O)CC(=O)C[C@H](O)C[C@H](O)C[C@H](O)C[C@H](O)C[C@]3(O)C[C@H](O)[C@@H](C(=O)NCCN(C)C)C(C[C@@H](OC4OC(C)C(O)C(NC(=O)CN(C)C)C4O)/C=C/C=C/C=C/C=C\C=C/C=C/C=C/[C@@H]2C)O3)cc1 (stereo partly drawn) [Amcipatricin diascorbate, Candicidin D, 18-decarboxy-40-demethyl-3,7-dideoxo-N3′-[(dimethylamino)acetyl]-18-[[[2-(dimethylamino)ethyl]-amino]carbonyl]-3,7-dihydroxy-N47-methyl-5-oxo-, cyclic 15,19-hemiacetal, compound with L-ascorbic acid (1:2)]
fungicidal activity compared to amphotericin B [1]: most fungicidal
geometric means of the minimum fungicidal concentrations [2]: 12.53 µg/mL
haemolytic minimum concentration against rat erythrocytes [3]: 18 mg/mL
AUC(0-00) ([4]; multiple administration 1.25 mg/kg/day for 7 days, intravenous, seventh day, serum): 72.1 µg·h/mL
serum elimination half-life ([4]; multiple administration 1.25 mg/kg/day for 7 days, intravenous, seventh day): 41.4 h
area under the curve to infinity (AUC(0-∞)) [4, 14]: 35.52 µg·h/mL
elimination half-lives [4, 14]: 22.15 h
tissue distribution ([4]; single intravenous administration): higher uptake by the kidneys, followed by the liver, spleen and lungs
fungicidal minimum inhibitory concentration against Candida albicans [5]: 7.5 ng/mL
MIC ([6]; strain I.2 (No 2), clade I/India): 2 µg/mL (≈ 1.56 µM)
MIC ([6]; strain I.3 (No 3), clade I/India): 2 µg/mL (≈ 1.56 µM)
MIC ([6]; strain I.4 (No 4), clade I/India): 2 µg/mL (≈ 1.56 µM)
MIC ([6]; strain II.1 (No 5), clade II/Japan): 2 µg/mL (≈ 1.56 µM)
MIC ([6]; strain II.2 (No 1), clade II/India): 2 µg/mL (≈ 1.56 µM)
MIC ([6]; strain III.7 (No 12), clade III/Switzerland): 1 µg/mL (≈ 0.78 µM)
MIC ([6]; strain III.8 (No 13), clade III/Israel): 1 µg/mL (≈ 0.78 µM)
MIC ([6]; strain III.9 (No 14), clade III/Israel): 1 µg/mL (≈ 0.78 µM)
MIC ([6]; strain IV.1 (No 15), clade IV/Colombia): 2 µg/mL (≈ 1.56 µM)
MIC ([6]; strain IV.10 (No 7), clade IV/Israel): 2 µg/mL (≈ 1.56 µM)
MIC ([6]; strain IV.11 (No 8), clade IV/Israel): 1 µg/mL (≈ 0.78 µM)
MIC ([6]; strain IV.12 (No 9), clade IV/Israel): 1 µg/mL (≈ 0.78 µM)
MIC ([6]; strain IV.13 (No 10), clade IV/Israel): 2 µg/mL (≈ 1.56 µM)
MIC ([6]; strain IV.14 (No 11), clade IV/Israel): 2 µg/mL (≈ 1.56 µM)
MIC ([6]; strain IV.2 (No 16), clade IV/Colombia): 2 µg/mL (≈ 1.56 µM)
MIC ([6]; strain IV.3 (No 17), clade IV/Colombia): 2 µg/mL (≈ 1.56 µM)
MIC ([6]; strain IV.4 (No 18), clade IV/Colombia): 2 µg/mL (≈ 1.56 µM)
MIC ([6]; strain IV.5 (No 19), clade IV/Colombia): 2 µg/mL (≈ 1.56 µM)
MIC ([6]; strain IV.6 (No 20), clade IV/Colombia): 2 µg/mL (≈ 1.56 µM)
MIC ([6]; strain IV.7 (No 21), clade IV/Colombia): 2 µg/mL (≈ 1.56 µM)
MIC ([6]; strain IV.8 (No 22), clade IV/Colombia): 2 µg/mL (≈ 1.56 µM)
MIC ([6]; strain IV.9 (No 6), clade IV/Israel): 2 µg/mL (≈ 1.56 µM)
MIC [7]: 4 µg/mL (≈ 3.12 µM)
MIC ([8]; strain 3315, clinical strain): 2 µg/mL (≈ 1.56 µM)
MIC ([8]; strain 3435, clinical strain): 4 µg/mL (≈ 3.12 µM)
MIC ([9]; ATCC24905, strain ATCC 24905, ATCC strain): 4 µg/mL (≈ 3.12 µM)
MIC ([9]; strain 2109, clinical strain): 4 µg/mL (≈ 3.12 µM)
MIC ([9]; strain 2707, clinical strain): 4 µg/mL (≈ 3.12 µM)
MIC ([9]; strain 4280, clinical strain): 4 µg/mL (≈ 3.12 µM)
MFC [10]: 19.2 µg/mL (≈ 15 µM)
geometric means of the minimum fungicidal concentrations [11]: about 12 μg/mL
drug concentrations inhibiting conversion from yeast to mycelial form [12]: 0.25 to 0.62 mg/L
fungicidal activity compared to amphotericin B [13]: most fungicidal
